By IC50 is commonly meant the concentration that gives 50% inhibition. A lower IC50 goes with greater potency in that assay.

Assay [1] addresses T1, Dual specificity tyrosine-phosphorylation-regulated kinase 2 (Homo sapiens, UniProt Q92630).
T1 sequence (Q92630 whole entry): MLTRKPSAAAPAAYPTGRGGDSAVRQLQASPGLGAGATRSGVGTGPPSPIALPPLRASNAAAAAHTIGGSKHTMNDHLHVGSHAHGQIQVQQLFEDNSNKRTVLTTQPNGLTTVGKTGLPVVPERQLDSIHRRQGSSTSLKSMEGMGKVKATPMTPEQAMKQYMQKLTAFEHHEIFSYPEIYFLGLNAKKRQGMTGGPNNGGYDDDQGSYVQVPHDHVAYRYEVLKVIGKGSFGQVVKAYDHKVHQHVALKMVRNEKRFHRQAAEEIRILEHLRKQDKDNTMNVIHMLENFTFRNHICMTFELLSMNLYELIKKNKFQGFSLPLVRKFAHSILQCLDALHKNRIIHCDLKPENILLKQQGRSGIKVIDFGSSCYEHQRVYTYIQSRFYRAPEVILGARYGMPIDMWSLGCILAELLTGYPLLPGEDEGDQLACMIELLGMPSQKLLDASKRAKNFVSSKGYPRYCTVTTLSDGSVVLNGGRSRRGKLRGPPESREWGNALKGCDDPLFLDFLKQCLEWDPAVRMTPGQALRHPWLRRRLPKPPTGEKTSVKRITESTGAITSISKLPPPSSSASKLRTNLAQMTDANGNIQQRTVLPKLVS

Assay [2] has as its target T2, Dual specificity tyrosine-phosphorylation-regulated kinase 4 (Homo sapiens, UniProt Q9NR20).
T2 sequence (Q9NR20 whole entry): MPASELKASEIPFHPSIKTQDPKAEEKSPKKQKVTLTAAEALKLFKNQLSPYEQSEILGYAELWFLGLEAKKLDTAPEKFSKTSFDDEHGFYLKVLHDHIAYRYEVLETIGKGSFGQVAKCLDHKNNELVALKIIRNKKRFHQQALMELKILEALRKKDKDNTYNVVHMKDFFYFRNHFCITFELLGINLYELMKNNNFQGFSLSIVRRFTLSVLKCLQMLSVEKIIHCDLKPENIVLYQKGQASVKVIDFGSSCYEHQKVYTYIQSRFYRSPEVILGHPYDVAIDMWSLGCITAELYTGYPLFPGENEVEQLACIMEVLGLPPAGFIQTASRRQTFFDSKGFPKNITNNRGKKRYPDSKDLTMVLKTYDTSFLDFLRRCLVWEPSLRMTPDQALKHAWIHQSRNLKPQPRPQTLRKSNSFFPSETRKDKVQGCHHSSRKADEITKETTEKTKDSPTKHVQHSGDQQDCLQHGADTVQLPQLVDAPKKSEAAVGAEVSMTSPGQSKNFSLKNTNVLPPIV

The target in assay [3] is Dual specificity protein kinase CLK3 (Homo sapiens, UniProt P49761). Format: cell-based, Sf9.
Dual specificity protein kinase CLK3, sequence (P49761 whole entry): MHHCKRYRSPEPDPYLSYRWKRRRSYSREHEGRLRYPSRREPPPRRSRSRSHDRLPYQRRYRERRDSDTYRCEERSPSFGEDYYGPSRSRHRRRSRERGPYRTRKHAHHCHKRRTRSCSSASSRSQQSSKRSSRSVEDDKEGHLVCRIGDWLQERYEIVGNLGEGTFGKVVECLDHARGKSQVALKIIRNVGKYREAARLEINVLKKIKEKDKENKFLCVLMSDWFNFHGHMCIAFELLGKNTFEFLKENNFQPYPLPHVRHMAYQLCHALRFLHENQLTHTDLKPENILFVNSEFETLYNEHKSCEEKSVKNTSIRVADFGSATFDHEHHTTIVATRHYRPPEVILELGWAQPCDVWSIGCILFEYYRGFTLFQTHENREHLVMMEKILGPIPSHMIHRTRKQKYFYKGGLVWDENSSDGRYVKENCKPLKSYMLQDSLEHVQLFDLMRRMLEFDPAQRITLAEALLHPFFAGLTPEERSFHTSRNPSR
Assay [4] addresses T3, Dual specificity tyrosine-phosphorylation-regulated kinase 3 (Homo sapiens, UniProt O43781).
T3 sequence (O43781 whole entry): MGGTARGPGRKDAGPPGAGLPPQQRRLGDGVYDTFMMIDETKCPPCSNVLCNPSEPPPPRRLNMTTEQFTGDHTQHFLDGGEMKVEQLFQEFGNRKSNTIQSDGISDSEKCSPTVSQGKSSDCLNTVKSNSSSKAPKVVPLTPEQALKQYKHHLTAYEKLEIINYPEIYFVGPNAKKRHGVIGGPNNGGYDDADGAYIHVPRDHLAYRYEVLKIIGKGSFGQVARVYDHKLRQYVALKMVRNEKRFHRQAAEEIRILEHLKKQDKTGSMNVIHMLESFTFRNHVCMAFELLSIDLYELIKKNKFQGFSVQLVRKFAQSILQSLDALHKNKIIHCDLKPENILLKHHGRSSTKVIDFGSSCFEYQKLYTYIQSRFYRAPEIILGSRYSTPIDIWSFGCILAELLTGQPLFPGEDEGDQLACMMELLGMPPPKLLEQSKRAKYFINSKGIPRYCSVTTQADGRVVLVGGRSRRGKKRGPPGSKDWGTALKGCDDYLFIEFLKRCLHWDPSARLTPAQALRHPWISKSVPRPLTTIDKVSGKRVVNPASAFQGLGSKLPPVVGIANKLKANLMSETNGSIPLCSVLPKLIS

Assay [5] addresses Dual specificity protein kinase CLK2 (Homo sapiens, UniProt P49760).
In assay [6] the target is Casein kinase I isoform epsilon (Homo sapiens, UniProt P49674).
Casein kinase I isoform epsilon, sequence (P49674 whole entry, canonical isoform): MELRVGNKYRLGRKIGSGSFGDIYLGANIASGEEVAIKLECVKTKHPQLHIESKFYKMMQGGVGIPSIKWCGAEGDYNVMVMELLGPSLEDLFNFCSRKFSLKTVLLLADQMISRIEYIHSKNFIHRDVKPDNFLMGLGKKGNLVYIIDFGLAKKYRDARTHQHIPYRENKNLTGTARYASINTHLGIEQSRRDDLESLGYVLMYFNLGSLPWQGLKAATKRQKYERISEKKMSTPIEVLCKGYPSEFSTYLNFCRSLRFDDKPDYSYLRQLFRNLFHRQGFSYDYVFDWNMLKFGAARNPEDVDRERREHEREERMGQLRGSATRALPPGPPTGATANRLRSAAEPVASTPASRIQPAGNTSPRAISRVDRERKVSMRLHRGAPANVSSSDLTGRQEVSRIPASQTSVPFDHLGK
The target of assay [7] is Glycogen synthase kinase-3 beta (Homo sapiens, UniProt P49841). Format: cell-based, Sf9.
Glycogen synthase kinase-3 beta, sequence (P49841 whole entry): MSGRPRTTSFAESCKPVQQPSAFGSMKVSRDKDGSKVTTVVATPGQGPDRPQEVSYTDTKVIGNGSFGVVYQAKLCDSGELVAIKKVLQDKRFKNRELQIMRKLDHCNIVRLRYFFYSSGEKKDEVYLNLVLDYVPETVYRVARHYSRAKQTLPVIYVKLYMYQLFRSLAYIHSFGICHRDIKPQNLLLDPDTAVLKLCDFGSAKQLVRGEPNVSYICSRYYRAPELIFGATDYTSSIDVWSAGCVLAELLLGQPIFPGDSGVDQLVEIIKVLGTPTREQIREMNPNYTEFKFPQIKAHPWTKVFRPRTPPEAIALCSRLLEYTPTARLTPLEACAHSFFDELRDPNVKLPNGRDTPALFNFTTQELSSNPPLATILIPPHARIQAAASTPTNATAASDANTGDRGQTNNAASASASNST
The target in assay [8] is Cyclin-dependent kinase 5/CDK5 activator 1 (Homo sapiens, UniProt Q00535). The class given is cell-based, Sf9.
Cyclin-dependent kinase 5/CDK5 activator 1, sequence (Q00535 whole entry): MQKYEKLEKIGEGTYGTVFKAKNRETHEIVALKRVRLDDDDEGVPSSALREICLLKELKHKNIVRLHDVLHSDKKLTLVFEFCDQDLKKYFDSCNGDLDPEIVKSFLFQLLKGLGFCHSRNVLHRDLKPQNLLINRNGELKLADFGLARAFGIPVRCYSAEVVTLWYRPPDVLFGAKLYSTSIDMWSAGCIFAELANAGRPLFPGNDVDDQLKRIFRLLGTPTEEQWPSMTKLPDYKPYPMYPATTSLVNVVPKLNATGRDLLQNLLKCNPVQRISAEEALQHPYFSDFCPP
Cyclin-dependent kinase 5/CDK5 activator 1, sequence (Q15078 whole entry, further chain): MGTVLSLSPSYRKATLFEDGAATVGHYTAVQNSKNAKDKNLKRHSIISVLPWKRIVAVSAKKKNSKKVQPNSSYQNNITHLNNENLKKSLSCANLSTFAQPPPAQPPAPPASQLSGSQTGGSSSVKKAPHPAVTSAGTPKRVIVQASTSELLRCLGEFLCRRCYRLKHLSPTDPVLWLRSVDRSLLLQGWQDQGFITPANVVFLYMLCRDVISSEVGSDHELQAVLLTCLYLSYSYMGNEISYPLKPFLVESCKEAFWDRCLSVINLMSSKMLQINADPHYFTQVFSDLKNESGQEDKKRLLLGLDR
The target in assay [9] is Dual specificity protein kinase CLK4 (Homo sapiens, UniProt Q9HAZ1).
Dual specificity protein kinase CLK4, sequence (Q9HAZ1 whole entry): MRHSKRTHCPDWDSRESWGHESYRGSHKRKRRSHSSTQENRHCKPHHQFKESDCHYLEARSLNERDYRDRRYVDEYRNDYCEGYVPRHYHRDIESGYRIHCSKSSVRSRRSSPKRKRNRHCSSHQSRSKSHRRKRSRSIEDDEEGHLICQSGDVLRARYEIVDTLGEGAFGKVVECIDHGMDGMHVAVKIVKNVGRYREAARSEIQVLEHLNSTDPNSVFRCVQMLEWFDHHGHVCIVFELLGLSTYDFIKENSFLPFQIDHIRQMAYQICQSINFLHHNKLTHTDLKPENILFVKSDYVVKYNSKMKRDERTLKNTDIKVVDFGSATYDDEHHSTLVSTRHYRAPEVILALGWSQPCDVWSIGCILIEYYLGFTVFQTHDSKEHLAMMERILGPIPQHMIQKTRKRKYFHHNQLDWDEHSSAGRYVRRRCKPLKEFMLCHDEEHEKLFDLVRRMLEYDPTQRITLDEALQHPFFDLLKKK

Dual specificity protein kinase CLK2, sequence (P49760 whole entry, canonical isoform): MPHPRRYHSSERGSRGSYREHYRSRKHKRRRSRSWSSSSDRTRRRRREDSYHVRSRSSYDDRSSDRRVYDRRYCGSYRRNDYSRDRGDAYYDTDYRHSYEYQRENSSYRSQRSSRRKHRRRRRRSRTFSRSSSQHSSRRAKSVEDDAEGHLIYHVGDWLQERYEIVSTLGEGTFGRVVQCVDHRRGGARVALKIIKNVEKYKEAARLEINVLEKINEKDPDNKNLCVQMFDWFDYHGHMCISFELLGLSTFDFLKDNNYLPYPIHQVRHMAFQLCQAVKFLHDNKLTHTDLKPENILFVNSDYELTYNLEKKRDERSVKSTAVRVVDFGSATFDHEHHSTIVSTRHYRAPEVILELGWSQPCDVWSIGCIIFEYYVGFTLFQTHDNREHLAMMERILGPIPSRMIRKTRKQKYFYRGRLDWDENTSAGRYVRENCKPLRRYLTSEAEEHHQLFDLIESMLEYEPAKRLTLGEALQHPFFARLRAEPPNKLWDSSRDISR

Consider `O=C1NC(N[C@H]2CCCOC2)=N/C1=C\c1ccc2ncsc2c1`, for which the IC50 in assay [1] was 109 nM; in assay [2], 570 nM; in assay [3] it was 119 nM; in assay [4], 611 nM; in assay [5] it was 162 nM; in assay [6], greater than 10000 nM. In addition, the IC50 in assay [7] is greater than 10000 nM; in assay [8] it was 5900 nM.

`O=C1NC(NC2CCCC(F)(F)C2)=N/C1=C\c1ccc2ncsc2c1` (racemic): the IC50 in [1] worked out at 391 nM; in assay [2], 321 nM; in [3], 175 nM; in assay [4], 296 nM; in [5], 24 nM; in [6], 8460 nM. For the same molecule, the figures for the 50% inhibitory concentration (IC50) in [7] and in assay [8] were 5690 nM and 2380 nM, respectively.

Take `O=C1NC(NCC(O)Cc2ccccc2)=N/C1=C\c1ccc2ncsc2c1` (racemic): the concentration for half-maximal inhibition (IC50) in [1] is 527 nM; in [2], 288 nM; in [3] it was 472 nM; in [4], 1170 nM; in assay [5], 89 nM; in [6] it was greater than 10000 nM. Besides, the concentration for half-maximal inhibition (IC50) in assay [7] is 4810 nM; in assay [8] it was greater than 10000 nM.

For `CC1(NC2=N/C(=C\c3ccc4ncsc4c3)C(=O)N2)CCNC1=O` (racemic), the IC50 in assay [1] was 189 nM; in assay [2], 591 nM; in assay [3] it was 532 nM; in [4], 592 nM; in [5], 56 nM; in assay [6], greater than 10000 nM. In addition, the IC50 was 6280 nM in [7] and greater than 10000 nM in [8].

Take `Cc1nc2ccc(/C=C3\N=C(NC4CCCCC4)NC3=O)cc2s1`: the half-inhibitory concentration (IC50) in [1] is 4710 nM; in [9], 351 nM; in [2], greater than 10000 nM; in [3], 5040 nM; in [6], greater than 10000 nM; in assay [7], greater than 10000 nM. The molecule further registered an IC50 in assay [8] greater than 10000 nM.

As for `O=C1NC(NCCCn2ccnc2)=N/C1=C\c1ccc2ncsc2c1`, the half-inhibitory concentration (IC50) is 592 nM in [1]; 12 nM in assay [9]; 1790 nM in [3]; greater than 10000 nM in assay [6]; 6190 nM in assay [7]; greater than 10000 nM in assay [8].

As for `O=C1NC(Nc2ccccc2)=N/C1=C\c1ccc2c(c1)OCO2`, the concentration for half-maximal inhibition (IC50) in [9] was found to be 23 nM; in assay [3] it was 1200 nM; in [7], 600 nM.

Turning to `O=C1NC(N[C@@H]2CCCOC2)=N/C1=C\c1ccc2ncsc2c1`, the IC50 is 1180 nM in assay [1]; 1850 nM in [2]; 604 nM in assay [3]; 1640 nM in assay [4]; 236 nM in assay [5]; greater than 10000 nM in assay [6]. Moreover, the figures for the IC50 in assay [7] and in assay [8] were 9200 nM and greater than 10000 nM, respectively.

Take `CC1(C)CCC(NC2=N/C(=C\c3ccc4ncsc4c3)C(=O)N2)CO1` (racemic): the IC50 in [1] was 260 nM; in assay [2] it was 574 nM; in [3], 357 nM; in assay [4] it was 692 nM; in assay [5], 102 nM; in [6], greater than 10000 nM. Further, the figures for the 50% inhibitory concentration (IC50) in [7] and in assay [8] were 4750 nM and greater than 10000 nM, respectively.

For `O=C1NC(NC2CCC(F)(F)C2)=N/C1=C\c1ccc2ncsc2c1` (racemic), the half-maximal inhibitory concentration (IC50) in [1] is 389 nM; in [2], 326 nM; in assay [3], 173 nM; in assay [4], 299 nM; in [5] it was 39 nM; in [6], greater than 10000 nM. Besides, the IC50 in assay [7] came to 4690 nM; in [8] it was 5500 nM.

In the case of `CN1CCN(c2cnc(NC3=N/C(=C\c4ccc5ncsc5c4)C(=O)N3)nc2)CC1`, the half-inhibitory concentration (IC50) in [1] was 7480 nM; in [2], greater than 10000 nM; in [3], 5100 nM; in [4], 450 nM; in assay [5], 997 nM; in [6], greater than 10000 nM. Also, the concentration for half-maximal inhibition (IC50) in assay [7] and in assay [8] was greater than 10000 nM in each case.

For `COC(CNC1=N/C(=C\c2ccc3ncsc3c2)C(=O)N1)c1ccccc1` (racemic), the concentration for half-maximal inhibition (IC50) in [1] was 352 nM; in assay [2], 1560 nM; in assay [3], 270 nM; in assay [4] it was 1510 nM; in assay [5], 148 nM; in assay [6] it was greater than 10000 nM. In addition, the IC50 in assay [7] is 4310 nM; in [8], greater than 10000 nM.

Take `O=C1NC(N[C@H]2C3CC4CC2C[C@](O)(C4)C3)=N/C1=C\c1ccc2ncsc2c1`: the IC50 worked out at 296 nM in assay [1]; 321 nM in [2]; 626 nM in [3]; 122 nM in assay [4]; 11 nM in assay [5]; 9800 nM in assay [6]. Moreover, the IC50 in assay [7] was 5370 nM; in assay [8] it was 2300 nM.

As to `O=C1NC(NC2CCCCOC2)=N/C1=C\c1ccc2ncsc2c1` (racemic), the IC50 is 704 nM in assay [1]; 383 nM in assay [2]; 428 nM in [3]; 495 nM in [4]; 51 nM in assay [5]; greater than 10000 nM in assay [6]. Besides, the 50% inhibitory concentration (IC50) was found to be 2770 nM in assay [7] and 3890 nM in assay [8].

In the case of `O=C1NC(NC(CF)c2ccccc2)=N/C1=C\c1ccc2ncsc2c1` (racemic), the half-maximal inhibitory concentration (IC50) in [1] is 530 nM; in assay [2] it was 459 nM; in assay [3], 293 nM; in assay [4], 477 nM; in assay [5], 13 nM; in [6], greater than 10000 nM. The results for the IC50 in assay [7] and in assay [8] were 947 nM and greater than 10000 nM, respectively.

As for `O=C1NC(NCc2ccncc2)=N/C1=C\c1ccc2ncsc2c1`, the half-inhibitory concentration (IC50) in assay [1] is 613 nM; in assay [2], 1240 nM; in assay [3], 1230 nM; in assay [4], 1030 nM; in assay [5], 109 nM; in assay [6] it was greater than 10000 nM. In addition, the concentration for half-maximal inhibition (IC50) in [7] is 3260 nM; in assay [8] it was greater than 10000 nM.

With `O=C1NC(NC2CCCSC2)=N/C1=C\c1ccc2ncsc2c1` (racemic), the concentration for half-maximal inhibition (IC50) in [1] is 124 nM; in assay [2] it was 246 nM; in assay [3] it was 107 nM; in [4] it was 335 nM; in assay [5], 37 nM; in assay [6] it was greater than 10000 nM. For the same molecule, the IC50 in assay [7] was found to be 7220 nM; in assay [8], 2490 nM.

`O=C1NC(NCC(O)C2CCCCC2)=N/C1=C\c1ccc2ncsc2c1` (racemic): the IC50 in assay [1] came to 1090 nM; in assay [2], 319 nM; in assay [3], 299 nM; in assay [4] it was 357 nM; in [5] it was 46 nM; in assay [6], 6930 nM. The IC50 was 3080 nM in assay [7] and greater than 10000 nM in assay [8].

For `O=C1NC(NC(CO)C2CCCCC2)=N/C1=C\c1ccc2ncsc2c1` (racemic), the IC50 was 1380 nM in assay [1]; 410 nM in assay [2]; 1090 nM in [3]; 695 nM in assay [4]; 80 nM in [5]; greater than 10000 nM in assay [6]. For the same molecule, the results for the IC50 in [7] and in assay [8] were 4160 nM and greater than 10000 nM, respectively.

The record behind these values is ChEMBL document CHEMBL5360622, “Leucettinibs, a Class of DYRK/CLK Kinase Inhibitors Inspired by the Marine Sponge Natural Product Leucettamine B” (J Med Chem, 2023).
